Assay results reported in paper PMC5024298, “The coiled-coil domain of zebrafish TRPM7 regulates Mg·nucleotide sensitivity” (Scientific Reports, 2016).
Where “and” joins values, the source holds several entries; their conditions need not be identical. Equal values may be shown once. Read-outs that look alike come from different tables or passages of the source.

Key:
[1] = tested on: human TRPM7 (hTRPM7); details: cited from earlier work
[2] = tested on: Mammalian TRPM7; details: cited from earlier work
[3] = tested on: zebrafish TRPM7 (drTRPM7) wild type; assay: Whole-cell patch-clamp of tetracycline-induced HEK293 T-REx cells overexpressing wild type drTRPM7; format: cell-based, zebrafish (Danio rerio); details: for Biophysical characteristic: effect on drTRPM7 (Table 1): heterologous drTRPM7; for effect of extracellular divalent application on monovalent outward currents: 10 mM divalent replacing 10 mM Ca^2+, NMDG external solution; for IC50: 200 s
Description: (§1) HEK293 T-REx cells stably expressing HA-tagged Danio rerio TRPM7 (drTRPM7) wild type or mutants were cultured in DMEM with 10% FBS and 5 μg/ml of blasticidin and 200 μg/ml hygromycin. HEK293 T-REx cells were incubated at 37 °C and 5% CO2. Expression was induced by adding 1 μg/ml tetracycline to the growth media 20 hours before experiments. […] Chicken DT40 wild type and DT40 cells with a TRPM7 […] (DT40 TRPM7-KO) cells were maintained as described before.
(§2) Patch-clamp experiments were performed in the tight-seal whole-cell configuration at room temperature (20–25 °C). Whole-cell currents were recorded with the EPC9 (HEKA, Bellmore, NY) and Patchmaster v2.4 (HEKA). Voltages were corrected for a liquid junction potential of 10 mV. The patch pipettes were pulled from borosilicate glass (Sutter Instruments, USA) with resistances of 2.5–3.5 MΩ when filled with internal solution. The voltage ramp protocol ranged from −100 mV to 100 mV over 50 ms and applied at 0.5 Hz. Current amplitudes were measured at −80 mV and +80 mV. The holding potential was set to 0 mV in all experiments. Currents were filtered at 2.9 kHz and digitized at 10 kHz. Cells were seeded on glass cover slips 1–2 days before the day of the experiment. Cover slips were submerged in the external solution at room temperature (20–25 °C). Cover slips and external solutions were replaced every hour.
The standard external solution contained (in mM): 140 NaCl, 2.8 KCl, 2 MgCl2, 11 glucose, 10 HEPES, and 1 CaCl2. The divalent profile experiments were performed using a modified external solution that contained (in mM): 140 N-methyl-D-glucamine (NMDG), 11 glucose, 10 HEPES and 10 CaCl2. For application, 10 mM CaCl2 was replaced with 10 mM of the respective divalent under study. The standard internal solution contained (in mM): 140 Cs-glutamate, 8 NaCl, 10 HEPES, and 10 Cs-BAPTA. pH was adjusted to 7.2 and osmolarity was kept between 290–330 mOsm. The solutions for pH below 6.0 contained (in mM): 140 NaCl, 2.8 KCl, 2 MgCl2, 11 glucose, 10 MES, and 1 CaCl2. For the Mg·ATP dose-response analysis, the internal solution contained (in mM): 120 Cs-glutamate, 8 NaCl, 10 HEPES, 10 Cs-BAPTA. Na·ATP and MgCl2 was used to achieve appropriate concentrations of free intracellular Mg^2+ and Mg·ATP as calculated using WebmaxC Standard (http://www.stanford.edu/~cpatton/webmaxcS.htm).
Statistical analysis was performed using Fitmaster (version 2.69; HEKA, Germany) and Igor software (version 6.34; WaveMetrics, USA). The p-values were calculated using Microsoft Excel version 14.1.2 using the two-tailed paired Student’s T-test. Data were normalized to cell size and expressed as current density (pA/pF), or normalized to the time point right before application (I/I[time]s). […] Dose-response fits were assessed using the fit function f(x) = ([Maximum current] *(1/(1 + ([Estimated IC50]/x)^[Hill coefficient])). The IC50 or EC50 values calculated with the dose-response curve function were reported with ± standard deviation (S.D.).
To study channel biophysics, HA-tagged wild type zebrafish TRPM7 (drTRPM7) was cloned and stably expressed in HEK293 T-REx cells under tetracycline-inducible promotor (see methods; ref. [3]). […] Both clones were also tested for drTRPM7 expression using the whole-cell patch-clamp technique.

[4] = tested on: endogenous TRPM7-like currents in ZFL cells; assay: Whole-cell patch-clamp of endogenous TRPM7-like currents in zebrafish liver cell line ZFL; format: cell-based
Description: as §1, §2

[5] = tested on: Human TRPM6; details: cited from earlier work
[6] = tested on: drTRPM7-1258; assay: Whole-cell patch-clamp of HEK293 T-REx cells overexpressing truncation mutant drTRPM7-1258; format: cell-based, zebrafish (Danio rerio)
Description: (§3) Patch-clamp experiments were performed in the tight-seal whole-cell configuration at room temperature (20–25 °C). Whole-cell currents were recorded with the EPC9 (HEKA, Bellmore, NY) and Patchmaster v2.4 (HEKA). Voltages were corrected for a liquid junction potential of 10 mV. The patch pipettes were pulled from borosilicate glass (Sutter Instruments, USA) with resistances of 2.5–3.5 MΩ when filled with internal solution. The voltage ramp protocol ranged from −100 mV to 100 mV over 50 ms and applied at 0.5 Hz. Current amplitudes were measured at −80 mV and +80 mV. The holding potential was set to 0 mV in all experiments. Currents were filtered at 2.9 kHz and digitized at 10 kHz. Cells were seeded on glass cover slips 1–2 days before the day of the experiment. […]
(§4) The standard external solution contained (in mM): 140 NaCl, 2.8 KCl, 2 MgCl2, 11 glucose, 10 HEPES, and 1 CaCl2. […] Na·ATP and MgCl2 was used to achieve appropriate concentrations of free intracellular Mg^2+ and Mg·ATP as calculated using WebmaxC Standard (http://www.stanford.edu/~cpatton/webmaxcS.htm).

[7] = tested on: drTRPM7-1178; assay: Whole-cell patch-clamp of HEK293 T-REx cells overexpressing truncation mutant drTRPM7-1178; format: cell-based, zebrafish (Danio rerio)
Description: as §3, §4

[8] = tested on: drTRPM7-1478; assay: Whole-cell patch-clamp of HEK293 T-REx cells overexpressing truncation mutant drTRPM7-1478; format: cell-based, zebrafish (Danio rerio); details: +80 mV, 200 s; Hill = 2, 1.5 (Fig. 6 legend); read-out: IC50 of internal Mg^2+
Description: Patch-clamp experiments were performed in the tight-seal whole-cell configuration at room temperature (20–25 °C). Whole-cell currents were recorded with the EPC9 (HEKA, Bellmore, NY) and Patchmaster v2.4 (HEKA). Voltages were corrected for a liquid junction potential of 10 mV. […] Current amplitudes were measured at −80 mV and +80 mV. […]
as §4

[9] = 1 mM intracellular Mg·ATP, 250 μM free Mg^2+

NCCOB(c1ccccc1)c1ccccc1 [2-APB, 2-aminoethyl diphenylborinate, reference compound]
effect of 2-APB on hTRPM7 currents [1]: inhibits
effect of 2-APB on mammalian TRPM7 ([2]; Table 1): Inhibition[12]
effect of 2-APB on drTRPM7 currents ([3]; concentrations of 300 μM and above): greatly enhanced
Biophysical characteristic: effect on drTRPM7 (Table 1) [3]: Potentiation
effect of 2-APB on drTRPM7 currents ([3]; lower concentrations (30 μM and 100 μM)): small but statistically not significant inhibitory effect
effect of 2-APB on drTRPM7 currents ([3]; various concentrations, up to 500 μM, external application): facilitated rather than inhibited
facilitation of inward and outward drTRPM7-like currents ([4]; 500 μM 2-APB applied at 400 s): 50%
effect of 2-APB on human TRPM6 ([5]; Table 1): Potentiation[12]
effect on human TRPM6 currents [5]: enhances

[Mg+2] [Mg^2+, magnesium]
IC50 ([6]; +80 mV, 200 s, Hill = 2, read-out: IC50 of internal Mg^2+): 250 ± 0.52 µM
IC50 ([7]; +80 mV, 200 s, Hill = 3, read-out: IC50 of internal Mg^2+): 840 ± 158 µM
IC50 ([2]; Table 1, read-out: IC50 of Mg^2+ on mammalian TRPM7): 720 µM
IC50 ([2]; read-out: IC50 of intracellular Mg^2+ on heterologous and/or native mouse and human TRPM7): ~750 µM
effect of extracellular divalent application on monovalent outward currents ([3]; +80 mV): almost completely suppressed
IC50 ([3]; current at +80 mV, Hill coefficient 1, read-out: IC50 of intracellular free Mg^2+ on drTRPM7 currents): 0.778 mM
IC50 [8]: 450 ± 0.55 µM
effect of intracellular free Mg^2+ on drTRPM7-like current development ([4]; 3.2 mM free Mg^2+ in pipette solution): completely suppressed
IC50 ([5]; Table 1, read-out: IC50 of Mg^2+ on human TRPM6): 29 µM

Nc1ncnc2c1ncn2[C@@H]1O[C@H](COP(=O)(O)OP(=O)([O-])OP(=O)([O-])O)[C@@H](O)[C@H]1O.[Mg+2] [Mg·ATP, Mg·adenosine triphosphate]
effect of Mg·ATP on drTRPM7-1258 currents [6, 9]: fully inhibited
sensitivity to intracellular Mg·ATP of drTRPM7-1258 compared to drTRPM7-1478 and wild type ([6]; ratio of IC50 values): about 4 fold
effect of Mg·ATP on drTRPM7-1178 currents [7, 9]: did not seem to have any effect
sensitivity of drTRPM7-1178 currents to intracellular Mg·ATP ([7]; up to 6 mM Mg·ATP, 250 μM free Mg^2+): completely lost any sensitivity
IC50 ([2]; Table 1, read-out: IC50 of Mg·ATP on mammalian TRPM7): 2000 µM
IC50 ([3]; internal free Mg^2+ 250 μM, +80 mV, Hill coefficient 1, read-out: IC50 of intracellular Mg·ATP on drTRPM7 currents): 1.16 mM and 1.2 mM
IC50 ([3]; internal free Mg^2+ 250 μM, +80 mV, Hill coefficient set to 1, read-out: IC50 of intracellular Mg·ATP on drTRPM7 currents (Fig. 1E legend)): 1.16 ± 0.7 mM
effect on human TRPM6 currents [5]: No effect[14]

C=C1CC/C=C(\C)CC[C@@H]2C([C@H](C/C=C(\C)COC(C)=O)OC(C)=O)=CO[C@H](OC(C)=O)[C@@H]12 [Waixenicin A, reference compound]
effect of waixenicin A on mammalian TRPM7 ([2]; Table 1): Inhibition[13]
effect of waixenicin A on drTRPM7 currents ([3]; 10 μM waixenicin A, 410 μM internal free Mg / 780 μM free Mg^2+ (Fig. 4 legend)): no effect
Biophysical characteristic: effect on drTRPM7 (Table 1) [3]: No effect
effect on human TRPM6 currents [5]: No effect[14]
effect on human TRPM6 currents ([5]; listed as waixenicin A): no significant effect

[Ba+2] [barium]
effect of extracellular divalent application on monovalent outward currents ([3]; +80 mV): facilitated outward currents

[Cd] [cadmium]
effect of extracellular divalent application on monovalent outward currents ([3]; +80 mV): facilitated outward currents

[Co+2] [cobalt]
effect of extracellular divalent application on monovalent outward currents ([3]; +80 mV): almost completely suppressed

[Ni+2] [nickel]
effect of extracellular divalent application on monovalent outward currents ([3]; +80 mV): almost completely suppressed

[Sr+2] [strontium]
effect of extracellular divalent application on monovalent outward currents ([3]; +80 mV): facilitated outward currents
